Molecules are shown by their SMILES. Like-named read-outs stand apart in the source and are kept apart here.

In one series the target is CYP3A4 (CYP3A) (Homo sapiens, UniProt P08684). The series is described as follows: in vitro. Conditions: microsomes, pH 7.4.
The conditions of series [1]: rat, microsomes, 1 μM, pH 7.4.
The conditions of series [2]: human, microsomes, 1 μM, pH 7.4.
The next series deals with CYP2D6 (Homo sapiens, UniProt P10635). Briefly: CYP2D6 inhibition assay (bufuralol, pooled human liver microsomes). For orientation: Liver microsomes are vesicles of endoplasmic reticulum, rich in cytochrome P450 enzymes.
For series [3], the target named is Beta Secretase enzyme (BACE) (Homo sapiens, UniProt P56817). The series is described as follows: In vitro enzymatic BACE FRET (fluorescence resonance energy transfer) assay.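 Further: fluorescence read after 1 h with 50 nM quenched peptide substrate spanning the BACE cleavage site, in pH 4.2 acetate buffer containing 10% DMSO and nonionic detergent.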 In kind it is biochemical.
The subject of the next series is Abeta peptide. Briefly: In vivo inhibition of beta-secretase (reduction of Abeta peptide in brain and cerebrospinal fluid).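 Further: abeta peptide quantified by sandwich ELISA with electrochemiluminescence readout in rat brain supernatant or CSF, relative to vehicle-dosed control animals.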 Also noted: species or system rat. The settings on record: po, orally administered at 30 mg/kg dose, measured after 4 hours.
In series [4] the test system is Aβ40 in conditioned medium of cells stably expressing Amyloid Precursor Protein (APP). The series is described as follows: In vitro BACE cell-based assay (Aβ40 in conditioned medium, sandwich ELISA).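 Further: compounds added as a dilution series, secreted peptide quantified by europium time-resolved fluorescence readout, potency fitted from percent of control versus compound concentration.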
A further series deals with CYP3A (Homo sapiens, UniProt P08684). Conditions: CYP3A4 inhibition; for IC50: read-out: 3A4 IC50.
A short description of series [5]: Microsomal stability assay, rat liver microsomes.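 Further: rat liver microsomes (0.25 mg/mL) with about 1 µM compound plus 1 mM NADPH, pH 7.4, 37 °C for 30 min, parent left measured by LC-MS/MS against 0 min.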 Conditions: rat liver microsomes.
Series [6] is described as follows: Microsomal stability assay, human liver microsomes.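 Further: pooled human liver microsomes at 0.25 mg/mL with 1 µM compound and NADPH at 37 °C, pH 7.4, for 30 min, unchanged parent quantified by LC-MS/MS against the 0 min sample.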 Conditions: human liver microsomes.
The mark [7] stands for this setting: read-out: 2D6 IC50, CYP2D6 inhibition.
Where [8] appears, read: BACE enzyme assay IC50, read-out: BACE1 FRET assay.

Sequence of CYP2D6 (P10635 whole entry): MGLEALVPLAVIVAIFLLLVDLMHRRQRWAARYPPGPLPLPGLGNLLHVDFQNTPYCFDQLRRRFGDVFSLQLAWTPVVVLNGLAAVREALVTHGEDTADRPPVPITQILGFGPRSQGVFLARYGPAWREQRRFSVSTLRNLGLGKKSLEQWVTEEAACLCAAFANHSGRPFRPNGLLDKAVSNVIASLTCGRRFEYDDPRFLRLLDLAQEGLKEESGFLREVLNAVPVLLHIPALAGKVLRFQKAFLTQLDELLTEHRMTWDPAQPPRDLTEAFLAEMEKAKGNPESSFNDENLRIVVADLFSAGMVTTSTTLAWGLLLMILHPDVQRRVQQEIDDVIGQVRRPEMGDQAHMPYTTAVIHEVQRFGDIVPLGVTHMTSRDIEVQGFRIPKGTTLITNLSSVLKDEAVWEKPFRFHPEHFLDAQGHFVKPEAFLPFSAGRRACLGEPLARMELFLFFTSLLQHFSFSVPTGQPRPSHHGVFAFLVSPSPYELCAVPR
Sequence of Beta Secretase enzyme (BACE) (P56817 46-501): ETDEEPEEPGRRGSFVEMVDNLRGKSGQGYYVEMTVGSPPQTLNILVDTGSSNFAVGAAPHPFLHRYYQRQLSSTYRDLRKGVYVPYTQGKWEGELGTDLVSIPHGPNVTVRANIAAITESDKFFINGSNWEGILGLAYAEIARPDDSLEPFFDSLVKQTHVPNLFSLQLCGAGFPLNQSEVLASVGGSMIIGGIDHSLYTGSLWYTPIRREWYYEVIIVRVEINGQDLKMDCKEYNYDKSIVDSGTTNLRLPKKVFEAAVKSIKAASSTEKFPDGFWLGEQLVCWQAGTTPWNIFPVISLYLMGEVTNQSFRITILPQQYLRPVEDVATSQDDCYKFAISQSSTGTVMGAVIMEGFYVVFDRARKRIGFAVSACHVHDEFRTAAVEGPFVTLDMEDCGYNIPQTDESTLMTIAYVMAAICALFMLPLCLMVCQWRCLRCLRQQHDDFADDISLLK
Sequence of CYP3A (P08684 2-503): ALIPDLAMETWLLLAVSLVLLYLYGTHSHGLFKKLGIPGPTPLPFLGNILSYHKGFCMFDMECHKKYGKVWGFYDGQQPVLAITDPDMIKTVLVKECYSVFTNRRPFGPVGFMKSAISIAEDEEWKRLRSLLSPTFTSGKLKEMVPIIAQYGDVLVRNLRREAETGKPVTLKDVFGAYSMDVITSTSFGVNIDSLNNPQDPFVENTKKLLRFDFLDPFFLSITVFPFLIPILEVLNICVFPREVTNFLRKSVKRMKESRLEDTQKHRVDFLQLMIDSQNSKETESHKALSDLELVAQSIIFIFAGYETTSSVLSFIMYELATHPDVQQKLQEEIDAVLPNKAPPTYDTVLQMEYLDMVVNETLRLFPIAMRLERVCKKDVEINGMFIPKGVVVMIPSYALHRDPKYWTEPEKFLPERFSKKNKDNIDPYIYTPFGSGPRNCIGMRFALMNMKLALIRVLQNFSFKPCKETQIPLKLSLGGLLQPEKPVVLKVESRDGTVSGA
Sequence of CYP3A4 (CYP3A) (P08684 2-503): as above

As for `COCC(=O)N[C@@H](Cc1ccc(F)cc1)[C@H](O)CN[C@H]1CC2(CCC2)Oc2c1cc(CC(C)(C)C)nc2-c1c[nH]cn1` [Example 529], the IC50 against CYP3A4 (CYP3A) was 100 nM; at CYP2D6 (2D6 IC50 (uM), CYP enzyme inhibition), 0.7 µM; in [3] (BACE enzyme assay, read-out: BACE1 FRET assay), 23 nM; in series [4] (Homo sapiens, HEK293, HEK cells, read-out: HEK cell assay), 12 nM. Further, the “RLM” value in series [1] is 40 µL/min/mg. Besides, the “HLM” value in series [2] stood at 37 µL/min/mg. Besides, the inhibition in vivo at 30 mg/kg in the series on Abeta peptide (rat cerebrospinal fluid, read-out: percent reduction of abeta peptide in the cerebrospinal fluid of the rat) was 10 to 80%.
With `COCC(=O)N[C@@H](Cc1cccc(-c2nccs2)c1)[C@H](O)CN[C@H]1C[C@@]2(CCOC2)Oc2ncc(CC(C)(C)C)cc21` [compound 823, N-((1S,2R)-3-(((3S,4′S)-6′-(2,2-dimethylpropyl)-3′,4,4′,5-tetrahydrospiro[furan-3,2′-pyrano[2,3-b]pyridin]-4′-yl)amino)-2-hydroxy-1-(3-(1,3-thiazol-2-yl)benzyl)propyl)-2-methoxyacetamide], the “RLM” value in series [1] turned out to be 171 µL/min/mg. Moreover, the “HLM” value in series [2] was determined as 57 µL/min/mg.
On the same counts, the results for `C#Cc1cccc(C[C@H](NC(=O)COC)[C@H](O)CN[C@H]2C[C@]3(CCOC3)Oc3ncc(CC(C)(C)C)cc32)c1` [compound 868] are 86 µL/min/mg and 14 µL/min/mg.
For `COCC(=O)N[C@@H](Cc1cc(F)cc(F)c1)[C@H](O)CN[C@H]1CC2(CCC2)Oc2c1cc([C@H]1CC1(C)C)nc2-c1ccncc1` [compound 703], in series [1], the “RLM” value was determined as 118 µL/min/mg. In [2], the “HLM” value came out at 32 µL/min/mg. The “3A4 IC50” value on CYP3A came out at 200 nM.
As for `COCC(=O)N[C@@H](Cc1cccc(-c2nccs2)c1)[C@H](O)CN[C@H]1C[C@]2(CCOC2)Oc2ncc(CC(C)(C)C)cc21` [compound 822], in series [1], the “RLM” value was found to be 101 µL/min/mg. Besides, in series [2], the “HLM” value turned out to be 54 µL/min/mg.
Consider `C#Cc1cccc(C[C@H](NC(=O)COC)[C@H](O)CN[C@H]2C[C@]3(CCOC3)Oc3ncc(CC(C)(C)C)cc32)c1` [compound 824], for which the “RLM” value in series [1] is 28 µL/min/mg. Moreover, the “HLM” value in series [2] amounted to 21 µL/min/mg.
On the same counts, the results for `COCC(=O)N[C@@H](Cc1cccc(-c2nccs2)c1)[C@H](O)CN[C@H]1C[C@]2(CCOC2)Oc2ncc(CC(C)(C)C)cc21` [compound 845] are 152 µL/min/mg and 64 µL/min/mg.
`CC(=O)N[C@@H](Cc1cc(F)cc(-c2nccs2)c1)[C@H](O)CN[C@H]1CC2(CCC2)Oc2ncc(CC(C)(C)C)cc21` [Example 435, N-((2S,3R)-4-((S)-2,2-spirocyclobutyl-6-neopentyl-3,4-dihydro-2H-pyrano[2,3-b]pyridin-4-ylamino)-1-(3-fluoro-5-(thiazol-2-yl)phenyl)-3-hydroxybutan-2-yl)acetamide] displayed an RLM in series [5] of 197 µL/min/mg. In addition, the HLM in [6] turned out to be 125 µL/min/mg. Moreover, the IC50 at CYP2D6 (setting [7]) came to 0.3 µM; on CYP3A, 1400 nM; in series [3] (read-out: BACE1 FRET assay (IC50)), 6 nM; in series [4] (HEK cells, read-out: HEK cell assay (IC50)) it was 39 nM.
In the case of `COCC(=O)N[C@@H](Cc1cccc(-c2nccs2)c1)[C@H](O)CN[C@H]1C[C@@]2(CCOC2)Oc2ncc(CC(C)(C)C)cc21` [compound 814, N-((1S,2R)-3-(((3S,4′S)-6′-(2,2-dimethylpropyl)-3′,4,4′,5-tetrahydrospiro[furan-3,2′-pyrano[2,3-b]pyridin]-4′-yl)amino)-2-hydroxy-1-(3-(1,3-thiazol-2-yl)benzyl)propyl)-2-methoxyacetamide], in series [1], the “RLM” value stood at 112 µL/min/mg. Besides, the “HLM” value in series [2] turned out to be 40 µL/min/mg.
On to `CC(=O)N[C@@H](Cc1ccc(F)c(-c2cscn2)c1)[C@H](O)CN[C@H]1CC2(CCC2)Oc2ccc(CC(C)(C)C)cc21` [Example 436, N-((2S,3R)-4-((S)-2,2-spirocyclobutyl-6-neopentyl-3,4-dihydro-2H-chromen-4-ylamino)-1-(4-fluoro-3-(thiazol-4-yl)phenyl)-3-hydroxybutan-2-yl)acetamide], for which the “RLM” value in series [5] was determined as 78 µL/min/mg. In series [6], the “HLM” value is 135 µL/min/mg. Further, the IC50 on CYP2D6 (setting [7]) was found to be 2.2 µM; on CYP3A, 200 nM; in series [3] (setting [8]), 5 nM; in series [4] (HEK cell-based assay IC50, read-out: HEK cell assay), 24 nM.
`COCC(=O)N[C@@H](Cc1cccc(-c2nccs2)c1)[C@H](O)CN[C@H]1C[C@@]2(CCOC2)Oc2ncc(CC(C)(C)C)cc21` [compound 846, N-((1S,2R)-3-(((3S,4′S)-6′-(2,2-dimethylpropyl)-3′,4,4′,5-tetrahydrospiro[furan-3,2′-pyrano[2,3-b]pyridin]-4′-yl)amino)-2-hydroxy-1-(3-(1,3-thiazol-2-yl)benzyl)propyl)-2-methoxyacetamide]: in series [1], the “RLM” value came to 128 µL/min/mg. For the same molecule, the “HLM” value in series [2] was determined as 82 µL/min/mg.
On the same counts, the results for `COCC(=O)N[C@@H](Cc1cc(F)cc(F)c1)[C@H](O)CN[C@H]1CC2(CCC2)Oc2c1cc([C@H]1CC1(C)C)nc2-c1ccncc1` [compound 678] are 79 µL/min/mg and 23 µL/min/mg.
In the case of `CC(=O)N[C@@H](Cc1ccc(-c2nccs2)cc1)[C@H](O)CN[C@H]1CC2(CCC2)Oc2ncc(CC(C)(C)C)cc21` [Example 677], the IC50 on CYP3A4 (CYP3A) amounted to 100 nM; against CYP2D6 (2D6 IC50 (uM), CYP2D6 inhibition) it was 1 µM; in series [3] (setting [8]), 15 nM; in series [4] (Homo sapiens, HEK293, HEK cell-based assay IC50, read-out: HEK cell assay), 28 nM. For the same molecule, the “RLM” value in [5] came to 52 µL/min/mg. Further, the “HLM” value in series [6] is 57 µL/min/mg. The inhibition in vivo at 30 mg/kg in the series on Abeta peptide (Rattus norvegicus, 4 h, rat brain, read-out: percent reduction of abeta peptide in the brain of the rat) was in the range of 5 to 80%; in the series with Abeta peptide (Rattus norvegicus, 4 h, rat cerebrospinal fluid, read-out: percent reduction of abeta peptide in the cerebrospinal fluid of the rat), 10 to 80%.

The values above are taken from US8163909B2, “Substituted hydroxyethyl amine compounds as beta-secretase modulators and methods of use” (Amgen Inc., priority 2007, dated 2012).
